Experimental data taken from patent publication US7642221B2, “Substituted thien-3-yl-sulphonylamino(thio)carbonyl-triazoline(ethi)ones” (Bayer Aktiengesellschaft, priority 1999, dated 2010).

Legend:
[1] = test system: Cyperus; experiment: Pre-emergence test/greenhouse; format: in vivo; conditions: greenhouse, rated after three weeks
Procedure: (§1) • Solvent: 5 parts by weight of acetone • Emulsifier: 1 part by weight of alkylaryl polyglycol ether
(§2) To produce a suitable preparation of active compound, 1 part by weight of active compound is mixed with the stated amount of solvent, the stated amount of emulsifier is added and the concentrate is diluted with water to the desired concentration.
(§3) Seeds of the test plants are sown in normal soil. After about 24 hours, the soil is sprayed with the preparation of active compound such that the particular amount of active compound desired is applied per unit area. The concentration of the spray liquor is chosen so that the particular amount of active compound desired is applied in 1000 liters of water per hectare.
(§4) After three weeks, the degree of damage to the plants is rated in % damage in comparison to the development of the untreated control.
(§5) The figure denote: • 0%=no effect (like untreated control) • 100%=total destruction

[2] = test system: Abutilon; experiment: Pre-emergence test/greenhouse; format: in vivo; conditions: greenhouse, rated after three weeks
Procedure: as §1, §2, §3, §4, §5

[3] = test system: Sinapis; experiment: Pre-emergence test/greenhouse; format: in vivo; conditions: greenhouse, rated after three weeks
Procedure: as §1, §2, §3, §4, §5

[4] = test system: Amaranthus; experiment: Pre-emergence test/greenhouse; format: in vivo; conditions: greenhouse, rated after three weeks
Procedure: as §1, §2, §3, §4, §5

[5] = test system: Alopecurus; experiment: Pre-emergence test/greenhouse; format: in vivo; conditions: greenhouse, rated after three weeks
Procedure: as §1, §2, §3, §4, §5

[6] = test system: Setaria; experiment: Pre-emergence test/greenhouse; format: in vivo; conditions: greenhouse, rated after three weeks
Procedure: as §1, §2, §3, §4, §5

[7] = test system: Xanthium; experiment: Pre-emergence test/greenhouse; format: in vivo; conditions: greenhouse, rated after three weeks
Procedure: as §1, §2, §3, §4, §5

[8] = test system: Abutilon; experiment: Post-emergence test/greenhouse; format: in vivo; conditions: greenhouse, rated after three weeks
Procedure: as §1
(§6) To produce a suitable preparation of active compound, one part by weight of active compound is mixed with the stated amount of solvent, the stated amount of emulsifier is added and the concentrate is diluted with water to the desired concentration.
(§7) Test plants which have a height of 5-15 cm are sprayed with the preparation of active compound such that the particular amounts of active compound desired are applied per unit area. The concentration of the spray liquor is chosen so that the particular amounts of active compound desired are applied in 1000 l of water/ha.
as §4
(§8) The figures denote: • 0%=no effect (like untreated control) • 100%=total destruction

[9] = test system: Sinapis; experiment: Post-emergence test/greenhouse; format: in vivo; conditions: greenhouse, rated after three weeks
Procedure: as §1, §6, §7, §4, §8

[10] = test system: Amaranthus; experiment: Post-emergence test/greenhouse; format: in vivo; conditions: greenhouse, rated after three weeks
Procedure: as §1, §6, §7, §4, §8

[11] = test system: Alopecurus; experiment: Post-emergence test/greenhouse; format: in vivo; conditions: greenhouse, rated after three weeks
Procedure: as §1, §6, §7, §4, §8

[12] = test system: Avenafatua; experiment: Post-emergence test/greenhouse; format: in vivo; conditions: greenhouse, rated after three weeks
Procedure: as §1, §6, §7, §4, §8

[13] = test system: Setaria; experiment: Post-emergence test/greenhouse; format: in vivo; conditions: greenhouse, rated after three weeks
Procedure: as §1, §6, §7, §4, §8

[14] = test system: Xanthium; experiment: Post-emergence test/greenhouse; format: in vivo; conditions: greenhouse, rated after three weeks
Procedure: as §1, §6, §7, §4, §8

[15] = test system: weeds; experiment: Pre-emergence test, activity against weeds; format: in vivo
Procedure: as §1, §2, §3, §4, §5

[16] = test system: weeds; experiment: Post-emergence test, activity against weeds; format: in vivo
Procedure: as §1, §6, §7, §4, §8

[17] = test system: Galium; experiment: Pre-emergence test/greenhouse; format: in vivo; conditions: greenhouse, 250 g of ai/ha, rated after three weeks
Procedure: as §1, §2, §3, §4, §5

[18] = test system: Solanum; experiment: Pre-emergence test/greenhouse; format: in vivo; conditions: greenhouse, 60 g of ai/ha, rated after three weeks
Procedure: as §1, §2, §3, §4, §5

[19] = test system: Wheat; experiment: Pre-emergence test/greenhouse; format: in vivo; conditions: greenhouse, 60 g of ai/ha, rated after three weeks
Procedure: as §1, §2, §3, §4, §5

[20] = test system: Barley; experiment: Pre-emergence test/greenhouse; format: in vivo; conditions: greenhouse, 60 g of ai/ha, rated after three weeks
Procedure: as §1, §2, §3, §4, §5

[21] = test system: Stellaria; experiment: Pre-emergence test/greenhouse; format: in vivo; conditions: greenhouse, 60 g of ai/ha, rated after three weeks
Procedure: as §1, §2, §3, §4, §5

[22] = test system: Solanum; experiment: Post-emergence test/greenhouse; format: in vivo; conditions: greenhouse, 15 g of ai/ha, rated after three weeks
Procedure: as §1, §6, §7, §4, §8

[23] = test system: Matricaria; experiment: Post-emergence test/greenhouse; format: in vivo; conditions: greenhouse, 15 g of ai/ha, rated after three weeks
Procedure: as §1, §6, §7, §4, §8

[24] = test system: Wheat; experiment: Post-emergence test/greenhouse; format: in vivo; conditions: greenhouse, 15 g of ai/ha, rated after three weeks
Procedure: as §1, §6, §7, §4, §8

[25] = test system: Echinochloa; experiment: Post-emergence test/greenhouse; format: in vivo; conditions: greenhouse, 15 g of ai/ha, rated after three weeks
Procedure: as §1, §6, §7, §4, §8

[26] = test system: Stellaria; experiment: Post-emergence test/greenhouse; format: in vivo; conditions: greenhouse, 15 g of ai/ha, rated after three weeks
Procedure: as §1, §6, §7, §4, §8

[27] = test system: Matricaria; experiment: Pre-emergence test/greenhouse; format: in vivo; conditions: greenhouse, 60 g of ai/ha, rated after three weeks
Procedure: as §1, §2, §3, §4, §5

[28] = test system: Bromus; experiment: Pre-emergence test/greenhouse; format: in vivo; conditions: greenhouse, 60 g of ai/ha, rated after three weeks
Procedure: as §1, §2, §3, §4, §5

[29] = test system: Viola; experiment: Pre-emergence test/greenhouse; format: in vivo; conditions: greenhouse, 60 g of ai/ha, rated after three weeks
Procedure: as §1, §2, §3, §4, §5

[30] = test system: Chenopodium; experiment: Pre-emergence test/greenhouse; format: in vivo; conditions: greenhouse, 60 g of ai/ha, rated after three weeks
Procedure: as §1, §2, §3, §4, §5

[31] = test system: Veronica; experiment: Pre-emergence test/greenhouse; format: in vivo; conditions: greenhouse, 60 g of ai/ha, rated after three weeks
Procedure: as §1, §2, §3, §4, §5

[32] = test system: Maize; experiment: Pre-emergence test/greenhouse; format: in vivo; conditions: greenhouse, 60 g of ai/ha, rated after three weeks
Procedure: as §1, §2, §3, §4, §5

[33] = test system: Cotton; experiment: Pre-emergence test/greenhouse; format: in vivo; conditions: greenhouse, 60 g of ai/ha, rated after three weeks
Procedure: as §1, §2, §3, §4, §5

[34] = test system: Echinochloa; experiment: Pre-emergence test/greenhouse; format: in vivo; conditions: greenhouse, 60 g of ai/ha, rated after three weeks
Procedure: as §1, §2, §3, §4, §5

SMILES	degree of damage to the plants, Alopecurus ([5]; 60 g of ai/ha) [%]	degree of damage to the plants, Setaria ([6]; 60 g of ai/ha) [%]	activity against weeds [15]	activity against weeds [16]	degree of damage to the plants, Cyperus ([1]; 250 g of ai/ha) [%]	degree of damage to the plants, Abutilon ([2]; 250 g of ai/ha) [%]	degree of damage to the plants, Galium [17] [%]	degree of damage to the plants, Sinapis ([3]; 250 g of ai/ha) [%]	degree of damage to the plants, Amaranthus ([4]; 250 g of ai/ha) [%]	degree of damage to the plants, Alopecurus ([5]; 250 g of ai/ha) [%]	degree of damage to the plants, Setaria ([6]; 250 g of ai/ha) [%]	degree of damage to the plants, Abutilon ([8]; 250 g of ai/ha) [%]	degree of damage to the plants, Sinapis ([9]; 250 g of ai/ha) [%]	degree of damage to the plants, Amaranthus ([10]; 250 g of ai/ha) [%]	degree of damage to the plants, Alopecurus ([11]; 250 g of ai/ha) [%]	degree of damage to the plants, Avenafatua ([12]; 250 g of ai/ha) [%]	degree of damage to the plants, Setaria ([13]; 250 g of ai/ha) [%]	degree of damage to the plants, Xanthium ([14]; 250 g of ai/ha) [%]	degree of damage to the plants, Stellaria [21] [%]	degree of damage to the plants, Bromus [28] [%]	other results
COC(=O)c1csc(C)c1S(=O)(=O)NC(=O)n1nc(OC)n(C)c1=O [Example 2]	95	95	very strong activity	very strong activity	–	–	–	–	–	–	–	–	–	–	–	–	–	–	–	–	degree of damage to the plants, Cyperus ([1]; 60 g of ai/ha): 100%; degree of damage to the plants, Abutilon ([2]; 60 g of ai/ha): 95%; degree of damage to the plants, Sinapis ([3]; 60 g of ai/ha): 95%; degree of damage to the plants, Amaranthus ([4]; 60 g of ai/ha): 100%; degree of damage to the plants, Xanthium ([7]; 60 g of ai/ha): 100%; degree of damage to the plants, Abutilon ([8]; 60 g of ai/ha): 100%; degree of damage to the plants, Sinapis ([9]; 60 g of ai/ha): 100%; degree of damage to the plants, Amaranthus ([10]; 60 g of ai/ha): 100%; degree of damage to the plants, Alopecurus ([11]; 60 g of ai/ha): 95%; degree of damage to the plants, Avenafatua ([12]; 60 g of ai/ha): 80%; degree of damage to the plants, Setaria ([13]; 60 g of ai/ha): 100%; degree of damage to the plants, Xanthium ([14]; 60 g of ai/ha): 100%
CCCOc1nn(C(=O)NS(=O)(=O)c2c(C(=O)OC)csc2C)c(=O)n1C1CC1 [Example 7]	–	–	very strong activity	very strong activity	100	95	95	95	95	90	95	100	100	100	95	100	90	90	–	–	–
CCCOc1nn(C(=O)NS(=O)(=O)c2c(C(=O)OC)csc2C)c(=O)n1C [Example 3]	80	–	very strong activity	very strong activity	–	–	–	–	–	–	–	–	–	–	–	–	–	–	95	–	degree of damage to the plants, Solanum [18]: 90%; degree of damage to the plants, Wheat [19]: 0%; degree of damage to the plants, Barley [20]: 0%; degree of damage to the plants, Amaranthus ([4]; 60 g of ai/ha): 95%; degree of damage to the plants, Solanum [22]: 95%; degree of damage to the plants, Matricaria [23]: 90%; degree of damage to the plants, Wheat [24]: 0%; degree of damage to the plants, Abutilon ([8]; 15 g of ai/ha): 95%; degree of damage to the plants, Echinochloa [25]: 60%; degree of damage to the plants, Amaranthus ([10]; 15 g of ai/ha): 95%; degree of damage to the plants, Alopecurus ([11]; 15 g of ai/ha): 70%; degree of damage to the plants, Stellaria [26]: 100%
COC(=O)c1csc(C)c1S(=O)(=O)NC(=O)n1nc(C2CC2)n(C2CC2)c1=O [Example 9]	–	–	very strong activity	very strong activity	100	100	95	95	100	95	100	100	100	100	100	100	100	100	–	–	–
CCOc1nn(C(=O)NS(=O)(=O)c2c(C(=O)OC)csc2C)c(=O)n1C [Example 1, methyl 4-[[[(3-ethoxy-4,5-dihydro-4-methyl-5-oxo-1H-1,2,4-triazol-1-yl)-carbonyl]-amino]-sulphonyl]-5-methyl-thiophene-3-carboxylate]	90	90	very strong activity	very strong activity	–	–	–	–	–	–	–	100	100	100	100	100	100	100	95	90	melting point: 163 °C; degree of damage to the plants, Matricaria [27]: 95%; degree of damage to the plants, Viola [29]: 100%; degree of damage to the plants, Chenopodium [30]: 100%; degree of damage to the plants, Veronica [31]: 100%
CCOc1nn(C(=O)NS(=O)(=O)c2c(C(=O)OC)csc2C)c(=O)n1C1CC1 [Example 6]	–	–	very strong activity	very strong activity	100	100	90	95	95	95	100	100	100	100	100	100	100	100	–	–	degree of damage to the plants, Xanthium ([7]; 250 g of ai/ha): 95%
COC(=O)c1csc(C)c1S(=O)(=O)NC(=O)n1nc(SC)n(C)c1=O [Example 12]	–	100	very strong activity	very strong activity	–	–	–	–	–	–	–	100	100	100	95	100	100	100	100	100	degree of damage to the plants, Cyperus ([1]; 60 g of ai/ha): 100%; degree of damage to the plants, Maize [32]: 10%; degree of damage to the plants, Viola [29]: 100%; degree of damage to the plants, Abutilon ([2]; 60 g of ai/ha): 100%; degree of damage to the plants, Veronica [31]: 100%
COC(=O)c1csc(C)c1S(=O)(=O)NC(=O)n1nc(OC(C)C)n(C2CC2)c1=O [Example 8]	–	–	very strong activity	very strong activity	–	–	–	–	–	–	–	100	95	100	100	100	100	100	95	90	degree of damage to the plants, Solanum [18]: 90%; degree of damage to the plants, Viola [29]: 100%; degree of damage to the plants, Chenopodium [30]: 90%; degree of damage to the plants, Cotton [33]: 0%; degree of damage to the plants, Veronica [31]: 95%; degree of damage to the plants, Echinochloa [34]: 90%
